The values below are quoted from earlier work in patent US4983400A, “Controlled release combination of carbidopa/levodopa” (priority 1989, dated 1991).

For series [1] the following is noted: in vivo.

For the compound `N[C@@H](Cc1ccc(O)c(O)c1)C(=O)O` [levodopa], the “effect of high protein meals on plasma levodopa levels” value (human, in vivo, iv) is “without affecting plasma levodopa levels”. Besides, for the setting “intravenous”, the motor oscillations entry is recorded as “reduces motor oscillations”. Besides, the “effect of high protein meals on response” value (intravenous, high protein meals) is “decline in response”. Besides, the “residual symptoms at optimal response” value (intravenous, some patients) is “either tremor and bradykinesia or mobility with dyskinesia”. In addition, in series [1], the adverse reactions entry is listed as “severe adverse reactions, especially emesis, were experienced”.
